# Assay results as given in PMC11996864, “A small-molecule inhibitor of BCL10-MALT1 interaction abrogates progression of diffuse large B cell lymphoma” (The Journal of Clinical Investigation, 2025).
# Several values for one entry are separate records, joined by “and”; a condition that tells them apart may be missing. Identical values can stand only once.
# How the values were obtained:
# OCI-Ly7 cells = test: Apoptosis, annexin staining flow cytometry; format: cell-based, human
# [1] = tested on: BCL10 and MALT1 mRNA in TMD8 cells; test: BCL10 and MALT1 mRNA expression, qRT-PCR; format: cell-based, human
# Method: Transfection. HEK293T or HepG2 BCL10-/- cells (used only in Supplemental Figure 1 where indicated) were transiently transfected at approximately 80% confluence using Lipofectamine 3000 (ThermoFisher, Cat# L3000015) per manufacture instructions. Cells were lysed in buffer (150 mM NaCl, 2 mM EDTA, 10% glycerol, 1% Nonidet P-40, 20 mM Tris Hcl, pH 7.4) containing protease and phosphatase inhibitors (Thermo Scientific, Cat#78446) at 24 hours for HEK293T cells or 48 hours for HepG2 BCL10-/- cells.
# Immunoprecipitation. Cells were rinsed in PBS and lysed in buffer (150 mM NaCl, 2 mM EDTA, 10% glycerol, 1% Nonidet P-40, 20 mM Tris HCl, pH 7.4) containing protease and phosphatase inhibitors (Thermo Scientific, Cat#78446). Supernatants were incubated with anti-Myc tag agarose beads (Takara, Cat# 631208) or anti-HA tag matrix (Roche, Cat# 11815016001) overnight at 4°C with gentle rotation. Beads were then pelleted at 1000 rpm for 2 min and washed 3-4 times with buffer. Antibody-protein conjugates were removed from beads by boiling for ~5-8 minutes in 2x Laemmli sample buffer (Bio-Rad Laboratories, Cat# 161073) containing 2-mercaptoethanol, and samples were then subjected to SDS-PAGE and immunoblotting.
# Antibodies for western blots. The HRP-conjugated anti-HA (clone 3F10, Cat# 12013819001) and anti-HA (clone 3F10, Cat# 11867423001) antibodies were purchased from Sigma. The anti-phospho-IKKα(Ser176)/ IKKβ(Ser177) (clone C84E11, Cat# 2078), rabbit anti-GAPDH (clone […]
# were purchased from Cell Signaling Technology. The mouse anti-GAPDH (clone 6C5, Cat# sc- […]
# anti-IKKα/β (clone H-470, Cat# sc-7607) antibodies were purchased from Santa Cruz. The anti-N4BP1 antibody (Cat# CPA2415) was purchased from Cohesion Biosciences. The anti-mouse (Cat# W4021) and anti-rabbit (Cat# W4011) HRP-conjugated secondaries were purchased from Promega. The anti-Rat HRP-conjugated secondary was purchased from Cell Signaling […]
# qRT-PCR. Jurkat T cells grown in serum free media for 4 hours with indicated inhibitors prior to stimulation with PMA/Ionomycin for 4 hours. […]
# [2] = tested on: all CYP enzymes tested (CYP1A2, CYP2C9, CYP2C19, CYP2D6, CYP3A4); test: Reversible CYP inhibition, all enzymes tested; format: in vitro ADME; settings: both sexes, human, pooled human liver microsomes; read-out: IC50 against all CYP enzymes tested
# Method: Pharmacokinetic and cytochrome P450 inhibition studies. Studies were performed with the assistance of Touchstone Biosciences (Plymouth Meeting, Pennsylvania). […]
# For reversible CYP […]
# inhibition studies, different concentrations of M1i-124 were added to 0.2 mg/ml pooled, mixed-gender human liver microsomes (HLM). Each CYP450 isoform-specific probe substrate (CYP1A2, CYP2C9, CYP2C19, CYP2D6, and CYP3A4) was incubated individually with HLM and M1i-124 or corresponding positive control inhibitor (Phenacetin, Tolbutamaide, S-Mephenytoin, Dextromethorphan, Midazolam, and Testosterone). Samples were analyzed for metabolites of the probe substrates by LC-MS/MS at each of the test compound concentrations. A decrease in the formation of the metabolites compared to vehicle control was used to calculate the […]
# OCI-Ly3 xenografts = test: OCI-Ly3 xenograft in NSG mice; format: in vivo, mouse; settings: daily i.p., vs DMSO, result in words
# Excerpt: (§1) TMD8 cells were engrafted into 8-week-old female NOD.CB17-Prkdc^scid/J (NOD-SCID) mice from The Jackson Laboratory by subcutaneous injection of 10 × 10^6 cells resuspended in 50% Cultrex Basement Membrane Extract (R&D Systems, catalog 3632-010-02) into the right flank. OCI-Ly3 cells were engrafted into 5-week-old female NOD.Cg-Prkdc^scid Il2rg^tm1Wjl/SzJ (NSG) mice from The Jackson Laboratory by subcutaneous injection of 2.5 × 10^6 cells resuspended in Cultrex as above. OCI-Ly1 cells were engrafted into 6.5-week-old female NSG mice from The Jackson Laboratory by subcutaneous injection of 20 × 10^6 cells resuspended in Cultrex as above. For all xenograft models, when tumors reached an average volume of 100 mm^3, mice were randomized to receive M1i-124 (50 mg/kg i.p. per day), or equivalent volume of DMSO vehicle (50 μL i.p. per day). […] Tumor size was measured 3 times a week using a caliper and calculated using the formula (smallest diameter^2 × largest diameter)/2. Mice were sacrificed 24 hours after the last injection. Mice were sacrificed when the largest tumors reached 2,500 mm^3. For TMD8 xenograft experiments, tumors and various organs, including lung, heart, liver, and kidney, were collected and fixed in 10% buffered formalin, embedded in FFPE blocks, sectioned, and stained with H&E. Sections were evaluated by a board-certified pathologist.
# OCI-Ly1 xenografts = test: OCI-Ly1 xenograft in NSG mice; format: in vivo, mouse; settings: daily i.p., result in words
# Excerpt: as §1
structure (smiles),measurement,setting,value
O=S(=O)(NCc1ccc2c(c1)OCO2)c1ccc(Cc2ccc(S(=O)(=O)NCc3ccc4c(c3)OCO4)cc2)cc1 [M1i-124],Annexin (% positivity),"OCI-Ly7 cells; Ly7, individual replicates",27% and 16.65% and 14.5%
same,apoptosis of OCI-Ly7 cells,OCI-Ly7 cells; result in words,either no or minimal apoptotic response
same,BCL10 mRNA (normalized),"[1]; TMD8, 1 μM, 24 hrs",1.022 and 1.024 and 1.305
same,MALT1 mRNA (normalized),"[1]; TMD8, 1 μM, 24 hrs",0.842 and 0.979 and 1.096
same,BCL10 and MALT1 mRNA levels,"[1]; TMD8, result in words",modest time-dependent upregulation
same,IC50,[2],> 10 µM
same,OCI-Ly3 xenograft tumor growth,OCI-Ly3 xenografts,significant decrease in tumor growth
same,OCI-Ly1 xenograft growth,OCI-Ly1 xenografts,no effect
